According to patent EP2156836A1, “[…] PHARMACEUTICAL COMPOSITIONS CONSISTING OF A COMBINATION OF A 5 alpha-REDUCTASE ENZYME INHIBITOR AND A 1 alpha- […] RECEPTOR ANTAGONIST” (priority 2007, dated 2008):
Like-named read-outs stand apart in the source and are kept apart here.

Assays:
[1] = test system: Benign Prostatic Hyperplasia; format: in vivo, male patients; conditions: for Clinical Progression of BPH at 12 months of treatment (patients/group) / Clinical Progression of BPH at 12 months of treatment: daily tablet 12 months: Alfuzosine 10 mg, Finasteride 5 mg; for Clinical Progression of BPH at 12 months of treatment (patients/group): combination Finasteride 5 mg + Alfuzosine 5 mg; for Clinical Progression of BPH at 12 months of treatment (patients/group) / Increase in symptoms according to the score from American Association of Urology at 12 months of treatment (patients/group): n=40 per group; for Side Effects / patients who discontinued the treatment: human, in vivo; for Clinical Progression of BPH at 12 months of treatment: combination 5 mg + 5 mg, n=40
Procedure: In this clinical trial several tests were performed wherein Placebo, Finasteride, Alfuzosine and a combination of Finasteride/Alfuzosine were administered to a population of patients diagnosed with Benign Prostatic Hyperplasia.
(§1) Said clinical trial was applied in 160 male patients with a 60-year old average, wherein the symptoms manifested according to Urology American Association ranking were scored (score is assigned according to the following criteria: from 0= No symptoms to 35= severe symptoms). […] Finally, vital signs, treatment compliance and side effects were assessed for each of the groups.
(§2) At the beginning and at the end of said clinical trial the following examinations were applied to the patients: digital rectal examination, prostate-specific antigen assessment and urine analysis.
Subjects were randomized and assigned to a double-blind study divided into 4 groups. Randomization was stratified and medicament administration at night. • Group 1 Placebo: Patients received a daily tablet along 12 months. • Group 2 Finasteride: Patients received a daily 5 mg tablet along 12 months. • Group 3 Alfuzosine: Patients received a daily 10 mg tablet along 12 months. • Group 4 Combination: Patients received a tablet with a combination of Finasteride 5 mg and Alfuzosine 5 mg daily along 12 months.

[2] = test system: Benign Prostatic Hyperplasia; conditions: for Incontinence (patients/group) / Invasive Therapy due to BPH (patients/group) / Urinary Retention (patients/group) / Urinary Tract infection (patients/group) / Incontinence / Invasive Therapy due to BPH / Urinary Retention / Urinary Tract infection: 12 months; for Incontinence (patients/group) / Invasive Therapy due to BPH (patients/group) / Urinary Retention (patients/group) / Urinary Tract infection (patients/group) / Incontinence / Invasive Therapy due to BPH / Urinary Retention / Urinary Tract infection / Increase in symptoms according to the score from American Association of Urology at 12 months of treatment / Increase in symptoms according to the score from American Association of Urology at 12 months of treatment (patients/group): same dosing as E17; for Clinical Progression of BPH at 12 months of treatment (patients/group): daily tablet 12 months: Doxazosine titrated 1 to 8 mg, combination Dutasteride 0.5 mg + Doxazosine 1 mg; for Clinical Progression of BPH at 12 months of treatment (patients/group) / Clinical Progression of BPH at 12 months of treatment: Dutasteride 0.5 mg; for Clinical Progression of BPH at 12 months of treatment (patients/group) / Increase in symptoms according to the score from American Association of Urology at 12 months of treatment (patients/group): n=40 per group; for Side Effects / patients who discontinued the treatment: human, in vivo; for Incontinence / Invasive Therapy due to BPH / Urinary Retention / Urinary Tract infection / Clinical Progression of BPH at 12 months of treatment / Increase in symptoms according to the score from American Association of Urology at 12 months of treatment: percent of patients; for Clinical Progression of BPH at 12 months of treatment: Doxazosine titrated 1 to 8 mg, combination 0.5 mg + 1 mg, n=40
Procedure: as §1, with “64-year” for “60-year”
as §2
Subjects were randomized and assigned to a double-blind study divided into 4 groups.

[3] = test system: prostate size; conditions: cited from earlier work; for reduction of prostate size: Dutasteride daily dosage; for reduces prostate size: stated for the 5α-reductase enzyme inhibitors as a class
[4] = cited from earlier work; for serum concentrations as share of the equilibrium state concentration: daily dosage
[5] = test system: BPH; conditions: cited from earlier work
[6] = test system: plasmatic proteins; conditions: plasma; cited from earlier work
[7] = in vivo; cited from earlier work
[8] = test system: blood pressure; conditions: after oral administration; cited from earlier work
[9] = percent of patients, 12 months, same dosing as E1
[10] = percent of patients, same dosing as E1

Structure (SMILES) | Incontinence (patients/group) ([1]; 12 months, same dosing as E1) | Invasive Therapy due to BPH (patients/group) ([1]; 12 months, same dosing as E1) | Urinary Tract infection (patients/group) ([1]; 12 months, same dosing as E1) | Clinical Progression of BPH at 12 months of treatment (patients/group) [1] | Side Effects [1] | patients who discontinued the treatment [1] [%] | Incontinence [1, 9] [%] | Invasive Therapy due to BPH [1, 9] [%] | Urinary Tract infection [1, 9] [%] | Clinical Progression of BPH at 12 months of treatment ([1]; percent of patients) [%] | Increase in symptoms according to the score from American Association of Urology at 12 months of treatment [1, 10] [%] | Increase in symptoms according to the score from American Association of Urology at 12 months of treatment (patients/group) ([1]; same dosing as E1) | Incontinence (patients/group) [2] | Invasive Therapy due to BPH (patients/group) [2] | Urinary Retention (patients/group) [2] | Urinary Tract infection (patients/group) [2] | Clinical Progression of BPH at 12 months of treatment (patients/group) [2] | Side Effects [2] | patients who discontinued the treatment [2] [%] | Incontinence [2] [%] | other results
COc1cc2nc(N(C)CCCNC(=O)C3CCCO3)nc(N)c2cc1OC (stereo not drawn) [Alfuzosine] | 4/40 | 4/40 | 2/40 | 18/40 | dizziness, postural hypotension, asthenia and impotence | 95 | 10 | 10 | 5 | 45 | 47.5 | 19/40 | – | – | – | – | – | – | – | – | Urinary Retention (patients/group) ([1]; 12 months, same dosing as E1): 21/40; Urinary Retention [1, 9]: 52.5%
C[C@]12C=CC(=O)N[C@@H]1CC[C@@H]1[C@@H]2CC[C@]2(C)[C@@H](C(=O)Nc3cc(C(F)(F)F)ccc3C(F)(F)F)CC[C@@H]12 [Dutasteride] | – | – | – | – | – | – | – | – | – | – | – | – | 5/40 | 2/40 | 15/40 | 1/40 | 11/40 | erectile dysfunction, libido decrease and/or abnormal ejaculation | 60 | 12.5 | Invasive Therapy due to BPH [2]: 5%; Urinary Retention [2]: 37.5%; Urinary Tract infection [2]: 2.5%; Clinical Progression of BPH at 12 months of treatment [2]: 27.5%; Increase in symptoms according to the score from American Association of Urology at 12 months of treatment [2]: 35%; Increase in symptoms according to the score from American Association of Urology at 12 months of treatment (patients/group) [2]: 14/40; reduction of prostate size ([3]; in some patients): up to 50%; reduction of prostate size [3]: at least 20%; reduces prostate size [3]: up to 50%; half-life in blood ([4]; blood): 3-5 weeks; serum concentrations as share of the equilibrium state concentration ([4]; after one month): 65%; serum concentrations as share of the equilibrium state concentration ([4]; after three months): approximately 90%
CC(C)(C)NC(=O)[C@H]1CC[C@H]2[C@@H]3CC[C@H]4NC(=O)C=C[C@]4(C)[C@H]3CC[C@]12C [Finasteride] | 3/40 | 2/40 | 1/40 | 13/40 | erectile dysfunction, libido decrease and/or abnormal ejaculation | 45 | 7.5 | 5 | 2.5 | 32.5 | 37.5 | 15/40 | – | – | – | – | – | – | – | – | reduces prostate size [3]: up to 50%; Incidence of side effects during Finasteride treatment ([5]; most common: erectile dysfunction, decrease in ejaculated semen volume): about 3%; reduction in DHT concentration in blood and in prostate gland ([5]; patients who suffer BPH): ≤ 30%; reduction of prostate-specific antigen (PSA) serum levels ([5]; patients who suffer BPH): up to 50%; efficacy in an analysis of six clinical studies ([5]; when prostate weighed >40 g, Logan YT, Belgeri MT 2005): very effective
COc1cc2nc(N3CCN(C(=O)C4COc5ccccc5O4)CC3)nc(N)c2cc1OC (stereo not drawn) [Doxazosine] | – | – | – | – | – | – | – | – | – | – | – | – | 6/40 | 5/40 | 22/40 | 3/40 | 18/40 | dizziness, postural hypotension, and asthenia | 99 | 15 | bound to plasmatic proteins [6]: 98-99%; Invasive Therapy due to BPH [2]: 12.5%; Urinary Retention [2]: 55%; Urinary Tract infection [2]: 7.5%; Clinical Progression of BPH at 12 months of treatment [2]: 45%; Increase in symptoms according to the score from American Association of Urology at 12 months of treatment [2]: 50%; Increase in symptoms according to the score from American Association of Urology at 12 months of treatment (patients/group) [2]: 20/40; share of the dose removed by urine [7]: 9%; duration of hypotensive effects (remaining active) [8]: at least 24 hours; time at which hypotensive effects are observed [8]: 2 h
